Eleven molecules from ChEMBL document CHEMBL3046520, “Synthesis of novel 2-phenyl-3-[2-(substituted amino) ethylamino] quinazolin-4(3H)-ones as a new class of H1-antihistaminic agents” (Med Chem Res, 2013) can be followed below.

In series [1] the test system is Cavia porcellus. Nature of the series: In vivo H1-antihistaminic activity in conscious Cavia porcellus Dunkin-Hartley (guinea pig) assessed as protection against histamine-induced bronchospasm at 10 mg/kg, po. The format is functional.
Series [2] has as its system Cavia porcellus. Nature of the series: In vivo H1-antihistaminic activity in Cavia porcellus Dunkin-Hartley (guinea pig) assessed as time of onset of convulsion at 10 mg/kg, po. The format is functional.
Series [3] deals with Mus musculus. Briefly: Induction of sedation-hypnotic activity in Mus musculus Albino Swiss (mouse) assessed as reduction in locomotor activity at 5 mg/kg, po measured after 3 hr by actophotometer. The format is organism-based. Details: dose 5 mg/kg, route oral; scale not given: the % may be the effect or the level left. The settings on record: in vivo.
The subject of series [4] is Mus musculus. Briefly: Induction of sedation-hypnotic activity in Mus musculus Albino Swiss (mouse) assessed as reduction in locomotor activity at 5 mg/kg, po measured after 2 hr by actophotometer. The class given is organism-based. The arrangement: dose 5 mg/kg, route oral; scale not given: the % may be the effect or the level left. The settings on record: in vivo.
In series [5] the test system is Mus musculus. Briefly: Induction of sedation-hypnotic activity in Mus musculus Albino Swiss (mouse) assessed as reduction in locomotor activity at 5 mg/kg, po measured after 1 hr by actophotometer. The class given is organism-based. The arrangement: dose 5 mg/kg, route oral; scale not given: the % may be the effect or the level left. The settings on record: in vivo.

Series [6] concerns Mus musculus. Briefly: Induction of sedation-hypnotic activity in Mus musculus Albino Swiss (mouse) assessed as reduction in locomotor activity at 5 mg/kg, po measured after 0.5 hr by actophotometer. Details: dose 5 mg/kg, route oral; scale not given: the % may be the effect or the level left. To be noted: in vivo. The format is organism-based.
Series [7] concerns Cavia porcellus. Nature of the series: In vivo H1-antihistaminic activity in Cavia porcellus Dunkin-Hartley (guinea pig) assessed as time of onset of convulsion at 25 mg/kg, ip. The format is functional. The settings on record: route intraperitoneal.
For series [8], the system named is Cavia porcellus. Nature of the series: In vivo H1-antihistaminic activity in conscious Cavia porcellus Dunkin-Hartley (guinea pig) assessed as protection against histamine-induced bronchospasm at 25 mg/kg, ip. The class given is functional. To be noted: route intraperitoneal.

Regarding `O=c1c2ccccc2nc(-c2ccccc2)n1NCCNc1ccc([N+](=O)[O-])cc1`, the Activity in series [1] came out at 71.06%; in series [3], 8.32%; in series [4], 11.04%; in series [5] it was 9.98%; in series [6], 9.51%. For the same molecule, the Time in series [2] is on record as 394 s.
In the case of `O=c1c2ccccc2nc(-c2ccccc2)n1NCCNCc1ccccc1`, the Activity in series [1] was found to be 68.85%; in series [3], 8.9%; in series [4], 12.31%; in series [5], 11.52%; in series [6], 10.42%. Moreover, the Time in series [2] is given as 366 s.
With `O=c1c2ccccc2nc(-c2ccccc2)n1NCCN1CCOCC1`, the Activity in series [1] is on record as 73.36%; in series [3], 7.32%; in series [4], 10.41%; in series [5] it was 9.32%; in series [6], 8.43%. Moreover, the Time in series [2] stood at 428 s.
On to `COc1ccc(NCCNn2c(-c3ccccc3)nc3ccccc3c2=O)cc1`, for which the Activity in series [1] is listed as 71.35%; in series [3], 8.53%; in series [4] it was 10.94%; in series [5] it was 10.43%; in series [6], 9.03%. In addition, the Time in series [2] is reported as 398 s.
Consider `O=c1c2ccccc2nc(-c2ccccc2)n1NCCN1CCNCC1`, for which the Activity in series [1] is reported as 73.67%; in series [3], 8.21%; in series [4] it was 10.79%; in series [5], 10.42%; in series [6], 9.35%. The Time in series [2] is recorded as 433 s.
Turning to `O=c1c2ccccc2nc(-c2ccccc2)n1NCCNc1nccs1`, the Activity in series [1] was 72.12%; in series [3], 7.43%; in series [4], 9.85%; in series [5], 9.52%; in series [6], 8.21%. Further, the Time in series [2] worked out at 409 s.
In the case of `O=c1c2ccccc2nc(-c2ccccc2)n1NCCNc1ccccc1`, the Activity in series [1] was found to be 71.64%; in series [3], 10.11%; in series [4], 12.32%; in series [5], 11.55%; in series [6] it was 11.32%. In addition, the Time in series [2] was 402 s.
Regarding `O=c1c2ccccc2nc(-c2ccccc2)n1NCCNc1ccc(Cl)cc1`, the Activity in series [1] amounted to 72.12%; in series [3], 6.48%; in series [4], 10.73%; in series [5] it was 9.42%; in series [6], 8.28%. Also, in series [2], the Time came to 416 s.
As for `Cc1ccccc1NCCNn1c(-c2ccccc2)nc2ccccc2c1=O`, the Activity in series [1] amounted to 69.6%; in series [3], 7.13%; in series [4], 10.38%; in series [5], 9.88%; in series [6], 9.42%. Besides, the Time in series [2] was 375 s.
On to `CN(C)CCC(c1ccc(Cl)cc1)c1ccccn1.O=C(O)/C=C\C(=O)O` (stereo unspecified) [CHLORPHENIRAMINE MALEATE], for which, in series [7], the Time is 394 s. Further, the Activity in series [3] came out at 29.58%; in series [4], 34.8%; in series [5] it was 38.8%; in series [6], 32.04%; in series [8] it was 70.09%.
`COc1cccc(NCCNn2c(-c3ccccc3)nc3ccccc3c2=O)c1`: the Activity in series [1] was found to be 70.15%; in series [3], 9.32%; in series [4], 11.63%; in series [5] it was 10.89%; in series [6], 10.35%. In addition, in series [2], the Time amounted to 382 s.
